From a melting point compilation (Tetko et al.)

SMILES | melting point
CC(C)NC(=O)C(C#N)=CN(C)C | 113 to 115 °C
CC(C)CNCC(O)c1ccccc1 (stereo not given) | 61 to 63 °C
CC(=O)c1c(C#N)c2n(c1C)CCC2 | 132 to 134 °C
Cc1ccnc(-c2ccc(N)cc2)n1 | 118 to 120 °C
COCCNc1nnc(S)s1 | 120 to 122 °C
O=C1CCS(=O)(=O)CC1 | 167 to 169 °C
Brc1cn2ccnc2c(Br)n1 | 152 to 154 °C
Cn1nccc1C1CCNCC1 | 66 to 68 °C
Cn1ccc(N2CCCC(Br)C2=O)n1 (stereo not given) | 104 to 106 °C
Cc1n[nH]c(C)c1-c1ccccc1N | 162 to 164 °C
O=C(O)C1(c2cccc(Br)c2)CCCCC1 | 164 to 166 °C
NCCC(=O)N1CCN(c2ncccn2)CC1 | 87 to 89 °C
Nc1nnc(C2CC2)o1 | 170 to 172 °C
O=C(O)C1CCCN1C(=O)Cc1cccs1 (stereo not given) | 139 to 141 °C
C#CCN1C(=O)C=CC1=O | 46 to 48 °C
N#CCCNc1ccc(F)cc1 | 38 to 42 °C
O=[N+]([O-])c1cccc2c1CCCN2 | 79 to 81 °C
BrC12CC3CC(C1)CC(Br)(C3)C2 | 108 to 110 °C
NCc1cc(Br)c[nH]1 | 105 to 107 °C
NC(=NO)c1ccc(-n2cnc3ccccc32)nc1 | 214 to 216 °C
Cc1ccc(NC2=NC(C)(C)CS2)cc1 | 164 to 166 °C
c1ccc2c(c1)NCCCS2 | 22 to 24 °C
Cc1cc(C(=O)O)sc1Br | 171 to 173 °C

SMILES | melting point
O=S1(=O)CC(Cl)C(Cl)C1 (stereo not given) | 130 to 133 °C
COCCn1cc(C(=O)O)c2ccccc21 | 123 to 125 °C
Nc1nc2ccccc2nc1N1CCCC1 | 149 to 151 °C
N#CC1CSCCS1 (stereo not given) | 76 to 78 °C
NC(=O)C1CCCCN1C(=O)CCl (stereo not given) | 149 to 151 °C
O=C1NCCCC1C(F)(F)F (stereo not given) | 99 to 101 °C
O=C(CCl)NC1CCCC1 | 73 to 75 °C
Nc1ccn(CCc2ccncc2)n1 | 140 to 142 °C
O=C(O)[C@@H]1C[C@H]1c1cccnc1 (relative stereo) | 124 to 126 °C
CC(C)c1ccc(Cn2nccc2N)cc1 | < 17 °C
NC(=O)CCC1CCNCC1 | 64 to 66 °C
NC(=NO)C1CCCC1 | 74 to 76 °C
CC(C)N1CCC(N2CCNCC2)CC1 | 46 to 48 °C
O=S(=O)(Cl)c1ccc(Cl)c2ccccc12 | 90 to 92 °C
Nc1ccn(Cc2ccncc2)n1 | 122 to 124 °C
NS(=O)(=O)c1cccc(N2C(=O)C=CC2=O)c1 | 220 to 222 °C
Cc1nn(Cc2ccc(Cl)cc2)c(C)c1C=O | 71 to 73 °C
CC1=C(C(=O)O)C(=O)OC1(C)C | 111 to 113 °C
N#Cc1cn(-c2ccc(N)cc2)nc1N | 195 to 197 °C
CC(C)OC(=O)NNC(=O)CCl | 100 to 102 °C
Cc1nc(-c2ncccn2)sc1C(=O)O | 224 to 226 °C
CN(CC(N)=O)C1CCCC1 | 78 to 80 °C
Cc1noc(C)c1S(=O)(=O)N1CCCC1C(=O)O (stereo not given) | 133 to 137 °C

More lines, now with the values ahead:

melting point | SMILES
79 to 81 °C | N#CCC(=O)c1ccc(Cl)cc1F
124 to 126 °C | CC(C)(C)NC(=O)c1cccc(N)c1
170 to 172 °C | CC(=O)Nc1ccc(C)cc1O
74 to 76 °C | NCc1cccc(NC(=O)c2ccccn2)c1
129 to 131 °C | CCOc1cccc(S(N)(=O)=O)c1
182 to 184 °C | NC(=O)NCc1cccnc1
243 to 245 °C | O=C1CC(Cc2ccc(C(=O)O)cc2)C(=O)N1 (stereo not given)
71 to 73 °C | O=C(O)CSCc1ccc(F)cc1
219 to 221 °C | Cc1cc(C(=O)O)nn1-c1ccc(Cl)c(Cl)c1
53 to 55 °C | O=C(O)CCCCOc1ccc(Oc2ccccc2)cc1
289 to 291 °C | Cc1nnc2[nH]cc(C(=O)NN)cc1-2
181 to 183 °C | COc1ccc(-c2cc(C(=O)NN)c3ccccc3n2)cc1OC
253 to 255 °C | Cc1nc(N)ccc1C=CC(=O)O
226 to 228 °C | O=C(O)c1ccc(N2CCCS2(=O)=O)cc1Cl
159 to 161 °C | CCc1csc(-n2cc(C(=O)O)cn2)n1
180 to 182 °C | O=C(NC1CC1)c1cc([N+](=O)[O-])ccc1Cl
87 to 89 °C | CC(Cl)C(=O)Nc1ccc([N+](=O)[O-])cc1Cl (stereo not given)
183 to 185 °C | CCNS(=O)(=O)c1c[nH]c(C(=O)O)c1
188 to 190 °C | O=C(O)Cn1ncc2ccccc21
133 to 135 °C | O=C(O)CSC(=Cc1ccco1)c1nc2ccccc2s1

melting point | SMILES
156 to 158 °C | Nc1ccc(S(N)(=O)=O)cc1Cl
215 to 217 °C | O=C(O)Cc1c[nH]c2ncccc12
84 to 86 °C | CC(C)COc1ncccc1C(=O)O
177 to 179 °C | CN(C)S(=O)(=O)c1ccc(C(=O)O)o1
109 to 111 °C | O=C(O)C(Sc1ccc(F)cc1F)c1ccccc1 (stereo not given)
136 to 138 °C | O=C(NCCO)c1ccncc1
49 to 51 °C | CC(=O)c1cccc([N+](=O)[O-])c1C
309 to 311 °C | Cc1ccc(C(=O)O)cc1NC(=O)Nc1ccccc1
69 to 71 °C | O=C(OCc1ccc(Br)cc1)c1ccccc1O
198 to 202 °C | NC(=O)NC(Cc1c[nH]c2ccccc12)C(=O)O (stereo not given)
175 to 177 °C | O=C(O)c1cc(-c2cccc(Cl)c2)on1
117 to 119 °C | Cc1ccc(-c2csc(CC(N)=S)n2)cc1
65 to 68 °C | COC(=O)c1cccc(OC)c1O
108 to 110 °C | COc1ccc2cc(C(=O)CBr)ccc2c1
106 to 108 °C | Cc1ccc(S(=O)(=O)Nc2ccc(O)cc2)s1
188 to 192 °C | O=C(O)c1cccc(S(=O)(=O)NC2CC2)c1
199 to 201 °C | CNS(=O)(=O)c1ccc(Sc2ccccc2C(=O)O)cc1
95 to 97 °C | CCOC(=O)Nc1cccc(O)c1
66 to 68 °C | COCCNc1ccc(C#N)cc1
116 to 118 °C | CC(C)(C)S(=O)(=O)c1ccc(Br)cn1

melting point | SMILES
109 to 111 °C | CCNC(=O)COc1ccc(C=O)cc1OC
241 to 243 °C | CC(=O)NC(Cc1c[nH]cn1)C(N)=O (stereo not given)
144 to 148 °C | CCc1ccc(N2CC(C(=O)O)CC2=O)cc1 (stereo not given)
58 to 60 °C | O=C(O)CC1CCc2ccccc21 (stereo not given)
164 to 166 °C | COC(=O)c1cc(S(N)(=O)=O)c(F)cc1Br
155 to 157 °C | CC(=O)c1ccc(NS(C)(=O)=O)cc1
102 to 104 °C | Cc1cc(NC(=O)OC(C)(C)C)sc1C
189 to 191 °C | O=C(O)c1c[nH]c2nccc(Cl)c12
129 to 131 °C | Cc1ccc(-c2nc(C(=O)O)cs2)c(C)c1
175 to 177 °C | CCc1cc(Cl)n2c(nc3ccccc32)c1C#N
262 to 264 °C | O=c1[nH]cnc2cc(Br)ccc12
194 to 196 °C | Nc1ccc(F)c(NC(=O)Cn2cncn2)c1
59 to 61 °C | N#CCC(=O)c1ccc(F)c(Cl)c1
112 to 114 °C | CS(=O)(=O)OCCn1cnc2ccsc2c1=O
201 to 203 °C | CSCc1c(C(=O)O)sc2ccccc12
203 to 205 °C | Cc1nnnn1-c1cc(N)ccc1C(=O)O
104 to 106 °C | O=C(CO)Nc1ccc(C(F)(F)F)cc1
188 to 190 °C | Cc1cc(C)cc(C(=O)N2CCCC(C(=O)O)C2)c1 (stereo not given)
155 to 157 °C | O=C(CCl)NNC(=O)c1cccc(Cl)c1
